The source of these data is patent US11377429B2, “Benzothia(di)azepine compounds and their use as bile acid modulators” (Albireo AB, priority 2020, dated 2022).

One assay deals with T1, Human LBAT (Homo sapiens, UniProt Q14973).
T1 construct: expressed in transfected cells; cultured under Geneticin selection
T1 sequence (Q14973 1-349): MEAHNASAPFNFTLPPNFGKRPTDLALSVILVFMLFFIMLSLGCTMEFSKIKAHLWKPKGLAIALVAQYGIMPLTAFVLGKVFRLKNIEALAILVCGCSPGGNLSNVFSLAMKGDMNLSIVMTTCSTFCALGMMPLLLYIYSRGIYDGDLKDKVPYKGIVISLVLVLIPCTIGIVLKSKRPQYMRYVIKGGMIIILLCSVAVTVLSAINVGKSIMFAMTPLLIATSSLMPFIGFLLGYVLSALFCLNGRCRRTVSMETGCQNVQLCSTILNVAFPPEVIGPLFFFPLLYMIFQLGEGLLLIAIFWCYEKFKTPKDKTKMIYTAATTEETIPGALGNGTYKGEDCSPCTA
Put plainly: LBAT (h/m) assay, human LBAT-overexpressing cells, 3H-taurocholic acid uptake. The format is cell-based. The note with it: read-out: hLBAT IC50. How it is done: LBAT (h/m) Assay Protocol
20,000 cells (Human or Mouse LBAT-overexpressing cells) were seeded in 96-wells plate (Corning CLS3809) in 100 μL MEM-alpha medium (Gibco 12571-063) supplemented with 10% FBS (Gibco 10438026) containing Geneticin (Gibco 10131-027) (1 mg/mL) and incubated at 37° C. in 5% CO2 for 24 hours. After incubation, media was decanted from the wells and cells were washed two times with 300 μL of basal MEM-alpha medium (FBS-free). After decanting basal MEM-alpha medium each time, plates were tapped against paper towel to ensure maximum removal of residual media. For human LBAT, incubation mix was prepared by adding test inhibitor dilutions (3-fold serial dilution in DMSO (Sigma D2650), 10 points) in MEM-alpha (without FBS) containing 0.3 μM 3H-taurocholic acid (ARC ART-1368) and 7.5 μM cold taurocholic acid (Sigma T4009) (maintaining 0.2% final DMSO concentration). For mouse LBAT, incubation mix was prepared by adding test inhibitor dilutions (3-fold serial dilution in DMSO, 10 points) in MEM-alpha (without FBS) containing 0.3 μM 3H-taurocholic acid and 25 μM cold taurocholic acid maintaining 0.2% final DMSO concentration). 50 μL of incubation mix containing test inhibitors was then added to the wells (in duplicate) and the plates were incubated for 20 minutes in a CO2 incubator at 37° C. After incubation, the reaction was stopped by keeping the plates on ice water mix for 2-3 minutes and then the incubation mix was aspirated completely from the wells. The wells were washed two times with 250 μL of chilled unlabeled 1 mM taurocholic acid dissolved in HEPES (Gibco 15630080)-buffered (10 mM) HBSS (Gibco 14175079) (pH 7.4). The plates were tapped against a paper towel after every wash to ensure maximum removal of blocking buffer.
100 μL of MicroScint-20 (PerkinElmer 6013621) was added to the wells and kept overnight at room temperature before reading the plates in TopCount NXT™ Microplate Scintillation and Luminescence Counter from PerkinElmer under 3H Test protocol (set at 120 seconds reading time per well, with normal plate orientation).
(§1) Preparation of Test Compound Dilutions
(§2) All test compounds were provided in powder form at room temperature. 10 mM DMSO stocks of the test compounds were prepared, aliquoted and stored at −20° C. From the 10 mM DMSO stock of the compounds, a 3-fold serial dilution in DMSO was prepared to get a total of 10 dilutions of the test compounds. 0.5 μL of this dilution in DMSO was added to 250 μL of FBS-free basal media containing 3H-taurocholic acid and cold taurocholic acid to prepare the incubation mixture.

For another assay, the target named is T2, Human IBAT (Homo sapiens, UniProt Q12908).
T2 construct: expressed in transfected cells; cultured under Puromycin selection
T2 sequence (Q12908 1-348): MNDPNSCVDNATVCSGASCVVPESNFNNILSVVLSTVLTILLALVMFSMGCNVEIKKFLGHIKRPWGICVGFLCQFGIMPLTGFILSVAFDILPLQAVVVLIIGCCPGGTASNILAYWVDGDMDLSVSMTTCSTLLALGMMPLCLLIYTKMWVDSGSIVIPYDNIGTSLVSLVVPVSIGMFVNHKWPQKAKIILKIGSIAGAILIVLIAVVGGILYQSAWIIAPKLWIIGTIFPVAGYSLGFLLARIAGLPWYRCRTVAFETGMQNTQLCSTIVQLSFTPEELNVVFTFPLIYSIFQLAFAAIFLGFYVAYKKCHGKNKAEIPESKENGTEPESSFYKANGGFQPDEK
Put plainly: IBAT (h/m) assay, human IBAT-overexpressing cells, 3H-taurocholic acid uptake. The format is cell-based. The note with it: read-out: hIBAT IC50. Here is the method:
IBAT (h/m) Assay Protocol
10,000 cells (Human or Mouse IBAT-overexpressing cells) were seeded in 96-wells plate (Corning CLS3809) in 200 μL MEM-alpha medium (Gibco 12571-063) supplemented with 10% FBS (Gibco 10438026) containing Puromycin (Gibco A1113803) (10 μg/mL) and incubated at 37° C. in 5% CO2 for 48 hours. After incubation, media was decanted from the wells and cells were washed two times with 300 μL of basal MEM-alpha medium (FBS-free). After decanting basal MEM-alpha medium each time, plates were tapped against paper towel to ensure maximum removal of residual media. Test inhibitor dilutions (highest test concentration being 10 μM, 3-fold serial dilution, 10 points) prepared in DMSO (Sigma D2650) were added in incubation mix (maintaining 0.2% final DMSO concentration) containing 0.25 μM 3H-taurocholic acid (ARC ART-1368) and 5 μM of cold taurocholic acid (Sigma T4009). 50 μL of incubation mix containing test inhibitors was then added to the wells (in duplicate) and the plates were incubated for 20 minutes in a CO2 incubator at 37° C. After incubation, the reaction was stopped by keeping the plates on ice water mix for 2-3 minutes and then the incubation mix was aspirated completely from the wells. The wells were washed two times with 250 μL of chilled unlabeled 1 mM taurocholic acid dissolved in HEPES (Gibco 15630080)-buffered (10 mM) HBSS (Gibco 14175079) (pH 7.4). The plates were tapped against a paper towel after every wash to ensure maximum removal of blocking buffer. 100 μL of MicroScint-20 (PerkinElmer 6013621) was added to the wells and kept overnight at room temperature before reading the plates in TopCount NXT™ Microplate Scintillation and Luminescence Counter from PerkinElmer under 3H Test protocol (set at 120 seconds reading time per well).
as §1, §2

Bounds are passed on as bounds.

Usually IC50 stands for the concentration that gives 50% inhibition. Regarding `CCCCC1(CC)CN(c2ccc(F)cc2)c2cc(SC)c(OCC3(C(=O)O)CC3)cc2S(=O)(=O)C1` (racemic) [Example 2, 1-(((3-butyl-3-ethyl-5-(4-fluorophenyl)-7-(methylthio)-1,1-dioxido-2,3,4,5-tetrahydro-1,5-benzothiazepin-8-yl)oxy)methyl)cyclopropane-1-carboxylic Acid], the half-maximal inhibitory concentration (IC50) on Human LBAT came to 320 nM; at Human IBAT it was 11 nM. In the same order, the values of `CCCCC1(CC)CN(c2ccc(F)cc2)c2cc(SC)c(OCC(C)(C)C(=O)O)cc2S(=O)(=O)C1` (racemic) [Example 4, 3-((3-butyl-3-ethyl-5-(4-fluorophenyl)-7-(methylthio)-1,1-dioxido-2,3,4,5-tetrahydro-1,5-benzothiazepin-8-yl)oxy)-2,2-dimethylpropanoic Acid] are 173 nM and 37 nM. In the same order, the values of `CCCCC1(C)CN(c2ccc(F)cc2)c2cc(SC)c(OCC(O)C(=O)O)cc2S(=O)(=O)C1` (single isomer, unassigned) [1, diastereomer 2] are 2020 nM and 2 nM. The corresponding values for `CCCCC1(C)CN(c2ccc(F)cc2)c2cc(SC)c(OCC(O)C(=O)O)cc2S(=O)(=O)C1` (single isomer, unassigned) [1, diastereomer 3] are 921 nM and 61 nM.

Regarding `CCCCC1(C)CN(c2ccc(F)cc2)c2cc(SC)c(OCC(O)C(=O)O)cc2S(=O)(=O)C1` (single isomer, unassigned) [1, diastereomer 4], the 50% inhibitory concentration (IC50) on Human LBAT came to 1050 nM; on Human IBAT it was 122 nM. The corresponding values for `CCCCC1(CC)CN(c2ccc(F)cc2)c2cc(SC)c(OCC3(C(=O)O)CC3)cc2S(=O)(=O)C1` (single isomer, unassigned) [3, enantiomer 2] are 1080 nM and 258 nM. In the same order, the values of `CCCCC1(CC)CN(c2ccc(F)cc2)c2cc(SC)c(OCC(C)(C)C(=O)O)cc2S(=O)(=O)C1` (single isomer, unassigned) [5, enantiomer 2] are 119 nM and 770 nM.

Regarding `CCCCC1(CCCC)CN(c2ccc(F)cc2)c2cc(SC)c(OCC(OC)C(=O)O)cc2S(=O)(=O)C1` (single isomer, unassigned) [10, enantiomer 1], the results for the IC50 at Human LBAT and at Human IBAT were above 6670 nM and 40 nM, respectively.

`CCCCC1(CCCC)CN(c2ccc(F)cc2)c2cc(SC)c(OCC(OC)C(=O)O)cc2S(=O)(=O)C1` (single isomer, unassigned) [10, enantiomer 2]: the half-inhibitory concentration (IC50) at Human LBAT was above 2220 nM; on Human IBAT it was 4 nM. For `CCC1(CC)CN(c2ccccc2)c2cc(SC)c(OCC(C)(F)C(=O)O)cc2S(=O)(=O)C1` (stereo not shown) [Example 6, 3-((3,3-diethyl-7-(methylthio)-1,1-dioxido-5-phenyl-2,3,4,5-tetrahydro-1,5-benzothiazepin-8-yl)oxy)-2-fluoro-2-methylpropanoic Acid], the values for the IC50 at Human LBAT and at Human IBAT were 83 nM and 338 nM, respectively. Regarding `CCCCC1(CC)CN(c2ccc(F)cc2)c2cc(SC)c(OCC(OC)C(=O)O)cc2S(=O)(=O)C1` (stereo not shown) [Example 8, 3-((3-butyl-3-ethyl-5-(4-fluorophenyl)-7-(methylthio)-1,1-dioxido-2,3,4,5-tetrahydro-1,5-benzothiazepin-8-yl)oxy)-2-methoxypropanoic Acid], the IC50 on Human LBAT was determined as 2990 nM; on Human IBAT, 4 nM.

As to `CCCCC1(CCCC)CN(c2ccc(F)cc2)c2cc(SC)c(OCC(OC)C(=O)O)cc2S(=O)(=O)C1` (stereo not shown) [Example 9, 3-((3,3-dibutyl-5-(4-fluorophenyl)-7-(methylthio)-1,1-dioxido-2,3,4,5-tetrahydro-1,5-benzothiazepin-8-yl)oxy)-2-methoxypropanoic Acid], the IC50 was 5410 nM on Human LBAT and 10 nM on Human IBAT.

`CCCCC1(CC)CN(c2ccc(F)cc2)c2cc(SC)c(OCC(OCC)C(=O)O)cc2S(=O)(=O)C1` (stereo not shown) [Example 11, 3-((3-butyl-3-ethyl-5-(4-fluorophenyl)-7-(methylthio)-1,1-dioxido-2,3,4,5-tetrahydro-1,5-benzothiazepin-8-yl)oxy)-2-ethoxypropanoic Acid]: the concentration for half-maximal inhibition (IC50) at Human IBAT turned out to be 10 nM.

On to `CCCCC1(CCCC)CN(c2ccccc2)c2cc(SC)c(OCC(OCC)C(=O)O)cc2S(=O)(=O)C1` (stereo not shown) [Example 12, 3-((3,3-dibutyl-7-(methylthio)-1,1-dioxido-5-phenyl-2,3,4,5-tetrahydro-1,5-benzothiazepin-8-yl)oxy)-2-ethoxypropanoic Acid], for which the half-maximal inhibitory concentration (IC50) amounted to 1250 nM on Human LBAT and 3 nM at Human IBAT.

As for `CCC1(CC)CN(c2ccc(F)cc2)c2cc(SC)c(OCC(C)(C)C(=O)O)cc2S(=O)(=O)C1` [Example 13, 3-((3,3-diethyl-5-(4-fluorophenyl)-7-(methylthio)-1,1-dioxido-2,3,4,5-tetrahydro-1,5-benzothiazepin-8-yl)oxy)-2,2-dimethylpropanoic Acid], the half-maximal inhibitory concentration (IC50) on Human LBAT amounted to 21 nM; at Human IBAT, 256 nM.

`CCCC1(CCC)CN(c2ccccc2)c2cc(SC)c(OCC(O)C(=O)O)cc2S(=O)(=O)C1` (stereo not shown) [Example 14, 2-Hydroxy-3-((7-(methylthio)-1,1-dioxido-5-phenyl-3,3-dipropyl-2,3,4,5-tetrahydro-1,5-benzothiazepin-8-yl)oxy)propanoic Acid]: the concentration for half-maximal inhibition (IC50) at Human LBAT was 3680 nM; at Human IBAT, 30 nM.
